Results taken from patent US4282245A, “Dibenzothiepin derivatives and a process for producing the same” (Nippon Chemiphar Co., Ltd., priority 1978, dated 1981).
Like-named read-outs stand apart in the source and are kept apart here.

System: edema in the hind paws (carrageenan)
Experiment: carrageenan-induced hind paw edema in rats, oral administration (antiinflammatory effect)
Type: in vivo, Male Wistar rats
Conditions: for inhibition in vivo at 2 mg/kg: Rattus norvegicus, read-out: Inhibition (%) (after 3 hours); for Rate to Indomethacin: relative to Indomethacin = 1.00
Protocol: Male Wistar rats each weighing about 100 g, one group consisting of 5 to 7 animals, were orally given the compounds of the present invention and Indomethacin as a contrast, and edema was then induced in the hind paws by subcutaneous injection of 0.1 ml of 1% carrageenan one hour after the administration of the test compounds. Thereafter, the volumes of the hind paws with a predetermined lapse of time were measured by a volume differential meter.

[1] = oral, 2 mg/kg, after 3 hours, carrageenan hind paw edema, male Wistar rats
[2] = oral, 2 mg/kg, carrageenan hind paw edema, male Wistar rats

| Compound | inhibition in vivo at 2 mg/kg [1] | Rate to Indomethacin [2] | inhibition in vivo at 2 mg/kg (po, 3 h) |
| --- | --- | --- | --- |
| COc1ccc2c(c1)CC(=O)c1cc(C(C)C(N)=O)ccc1S2 (stereo not drawn) [Compound 1, 2(10,11-dihydro-8-methoxy-11-oxodibenzo[b,f]thiepin2-yl)-propionamide] | 67.8% | 5.2 | – |
| COc1ccc2c(c1)CC(=O)c1cc(C(C)C(=O)O)ccc1S2 (stereo not drawn) [Compound 2, 2(10,11-dihydro-8-methoxy-11-oxodibenzo[b,f]thiepin2-yl)-propionic acid] | 48.2% | 1.9 | – |
| CCOc1ccc2c(c1)CC(=O)c1cc(C(C)C(N)=O)ccc1S2 (stereo not drawn) [Compound 3, 2(10,11-dihydro-8-ethoxy-11-oxodibenzo[b,f]thiepin2-yl)-propionamide] | 40.4% | 1.2 | – |
| CC(C(N)=O)c1ccc2c(c1)C(=O)Cc1cc(Cl)ccc1S2 (stereo not drawn) [Compound 4, 2(8-chloro-10,11-dihydro-11-oxodibenzo[b,f]thiepin2-yl)-propionamide] | 46.8% | 1.4 | – |
| CC(C(=O)O)c1ccc2c(c1)C(=O)Cc1cc(Cl)ccc1S2 (stereo not drawn) [Compound 5, 2(8-chloro-10,11-dihydro-11-oxodibenzo[b,f]thiepin2-yl)-propionic acid] | 61.6% | 2.7 | – |
| CC(C(N)=O)c1ccc2c(c1)C(=O)Cc1cc(F)ccc1S2 (stereo not drawn) [Compound 6, 2(10,11-dihydro-8-fluoro-11-oxodibenzo[b,f]thiepin2-yl)-propionamide] | 58.4% | 2.29 | – |
| CC(C(=O)O)c1ccc2c(c1)C(=O)Cc1cc(F)ccc1S2 (stereo not drawn) [Compound 7, 2(10,11-dihydro-8-fluoro-11-oxodibenzo[b,f]thiepin2-yl)-propionic acid] | 66.8% | 4.56 | – |
| CC(C(N)=O)c1ccc2c(c1)C(=O)Cc1ccc(F)cc1S2 (stereo not drawn) [Compound 8, 2(10,11-dihydro-7-fluoro-11-oxodibenzo[b,f]thiepin2-yl)-propionamide] | 41.9% | 1.45 | – |
| COc1ccc2c(c1)c(CC(=O)O)c(C)n2C(=O)c1ccc(Cl)cc1 [Indomethacin, reference compound] | – | 1.00 | 34.5% |
